For 42 compounds, EC50, IC50 and AC50 results are on record in ChEMBL document CHEMBL1201862, “PubChem BioAssay data set” (2004).

The test system of data set [1] is H4. The data set can be described thus: Luminescence Cell-Based Dose Response HTS to Identify Activators of 5'UTR Stem-Loop Driven Prion Protein mRNA Translation in H4 Neuroglioblastoma Cells. [Related pubchem assays: 1829 (Project Summary), 1814 (Primary HTS)]. It is filed as functional. To be noted: Homo sapiens.
Data set [2] is described as follows: Luminescence Cell-Based Dose Response HTS to Identify Activators of Luciferase Translation or Activity in H4 […] Cells. [Related pubchem assays: 1829 (Project Summary), 1814 (Primary HTS)]. It counts as functional.
The target of data set [3] is T1, Rac GTPase-activating protein 1 (Homo sapiens, UniProt Q9H0H5).
T1 sequence (Q9H0H5 whole entry): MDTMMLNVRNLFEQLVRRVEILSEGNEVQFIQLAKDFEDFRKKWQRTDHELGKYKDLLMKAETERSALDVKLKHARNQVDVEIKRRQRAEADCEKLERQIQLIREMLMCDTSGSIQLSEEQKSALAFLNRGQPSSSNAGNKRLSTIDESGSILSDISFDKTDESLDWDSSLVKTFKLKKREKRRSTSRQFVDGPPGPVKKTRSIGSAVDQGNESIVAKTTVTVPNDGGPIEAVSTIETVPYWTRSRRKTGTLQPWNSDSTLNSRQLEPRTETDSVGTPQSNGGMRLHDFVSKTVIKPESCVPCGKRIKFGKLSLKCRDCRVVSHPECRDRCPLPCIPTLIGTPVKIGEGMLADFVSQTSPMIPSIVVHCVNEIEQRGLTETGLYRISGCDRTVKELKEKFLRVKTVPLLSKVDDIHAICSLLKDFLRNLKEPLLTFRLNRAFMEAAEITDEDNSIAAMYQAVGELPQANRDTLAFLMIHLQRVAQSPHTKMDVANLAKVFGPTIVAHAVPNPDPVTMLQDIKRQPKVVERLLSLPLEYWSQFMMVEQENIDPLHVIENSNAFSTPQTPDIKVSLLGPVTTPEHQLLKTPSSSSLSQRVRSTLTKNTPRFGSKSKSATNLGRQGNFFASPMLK
The data set can be described thus: blockers of MgcRacGAP-driven Rac1 GTP hydrolysis – biochemical, ADP Hunter fluorescence, primary and confirmatory, confirmation (AID 624330). It is filed as functional.

The nature of data set [4]: Trypanosoma cruzi growth suppression in host cells – NIH3T3 host cells, beta-gal luminescence, confirmation (AID 2044).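 Note: intracellular parasites grown in NIH/3T3 mouse fibroblasts as host cells; luminescent beta-galactosidase reporter signal from transgenic T. cruzi replicating inside host cells; inhibitors lower the luminescence signal.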 It counts as functional, cell-based.
A short description of data set [5]: NIH3T3 cell viability loss – ATP luminescence, mouse fibroblasts, counter-screen, dose response (AID 2010).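 Note: cells exposed to compound for about 90 hours before reading.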 It is filed as functional, cell-based.
Data set [6] has as its target Cytochrome P450 2C19 (Homo sapiens, UniProt P33261). The data set can be described thus: Cytochrome panel assay with activity outcomes. Panel member name: p450-cyp2c19 Compounds with AC50 equal or less than 10 uM are considered active. It counts as functional.
Data set [7] concerns Streptococcus sp. 'group A'. The data set can be described thus: Streptococcus pyogenes SK(-)GAS viability under kanamycin – luminescence, BacTiterGlo, confirmation, counter-screen for streptokinase expression inhibitor project, dose response (AID 1900). It is filed as functional, organism-based.
Data set [8] concerns Streptococcus. The experiment in a line: GAS UMAA2166 growth inhibition – luminescence, BacTiterGlo, counter-screen for streptokinase expression inhibitor project, dose response (AID 1915).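 Note: potency for reduction of bacterial viability or growth.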 It counts as functional, organism-based.
In data set [9] the target is T2, Corticotropin-releasing factor receptor 2/Corticotropin-releasing factor-binding protein (Homo sapiens, UniProt P24387+Q13324).
T2 sequence (Q13324 whole entry): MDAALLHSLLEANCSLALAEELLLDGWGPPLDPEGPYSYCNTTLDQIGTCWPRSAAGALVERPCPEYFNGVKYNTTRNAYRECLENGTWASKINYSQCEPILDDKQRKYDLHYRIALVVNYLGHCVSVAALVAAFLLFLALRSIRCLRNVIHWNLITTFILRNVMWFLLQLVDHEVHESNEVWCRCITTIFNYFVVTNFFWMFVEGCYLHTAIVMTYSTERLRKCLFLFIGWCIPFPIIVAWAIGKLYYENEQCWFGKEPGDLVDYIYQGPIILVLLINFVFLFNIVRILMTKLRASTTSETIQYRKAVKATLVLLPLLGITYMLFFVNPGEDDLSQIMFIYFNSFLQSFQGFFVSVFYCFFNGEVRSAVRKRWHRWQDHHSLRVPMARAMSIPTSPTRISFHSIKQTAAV
T2 sequence (P24387 whole entry): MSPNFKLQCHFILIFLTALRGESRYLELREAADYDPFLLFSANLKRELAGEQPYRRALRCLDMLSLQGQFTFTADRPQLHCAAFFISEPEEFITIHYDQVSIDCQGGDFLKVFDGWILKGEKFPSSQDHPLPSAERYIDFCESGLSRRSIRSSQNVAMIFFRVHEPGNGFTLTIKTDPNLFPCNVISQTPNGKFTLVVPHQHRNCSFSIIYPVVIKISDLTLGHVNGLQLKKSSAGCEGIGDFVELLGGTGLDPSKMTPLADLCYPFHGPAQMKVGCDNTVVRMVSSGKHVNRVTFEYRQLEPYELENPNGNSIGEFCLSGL
The experiment in a line: activators of CRF receptor 2 with binding protein – uHTS hits, confirmation (AID 602473). It is filed as functional. The following applies: read-out: EC50_Mean.

The target of data set [10] is T3, Cytochrome P450 1A2 (Homo sapiens, UniProt P05177).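 Note: PubChem cytochrome P450 panel assay, CYP1A2 panel member.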
T3 sequence (P05177 whole entry): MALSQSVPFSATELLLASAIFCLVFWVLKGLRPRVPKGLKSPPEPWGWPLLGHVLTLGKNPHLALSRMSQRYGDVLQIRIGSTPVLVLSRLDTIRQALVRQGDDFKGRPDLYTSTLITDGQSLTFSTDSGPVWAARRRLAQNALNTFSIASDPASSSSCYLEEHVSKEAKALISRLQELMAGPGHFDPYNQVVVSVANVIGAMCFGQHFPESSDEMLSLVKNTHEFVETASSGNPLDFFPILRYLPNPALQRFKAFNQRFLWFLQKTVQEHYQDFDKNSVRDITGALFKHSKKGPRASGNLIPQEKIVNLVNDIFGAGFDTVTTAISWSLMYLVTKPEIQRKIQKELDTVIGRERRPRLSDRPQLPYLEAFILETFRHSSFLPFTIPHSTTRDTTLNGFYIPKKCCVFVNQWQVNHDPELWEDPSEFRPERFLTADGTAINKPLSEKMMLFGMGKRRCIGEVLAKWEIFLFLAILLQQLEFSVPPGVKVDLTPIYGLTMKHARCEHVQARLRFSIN

Active and inactive are the calls of the source. Where only a bound is given, the exact number is not on record here.

Sequence of Cytochrome P450 2C19 (P33261 whole entry): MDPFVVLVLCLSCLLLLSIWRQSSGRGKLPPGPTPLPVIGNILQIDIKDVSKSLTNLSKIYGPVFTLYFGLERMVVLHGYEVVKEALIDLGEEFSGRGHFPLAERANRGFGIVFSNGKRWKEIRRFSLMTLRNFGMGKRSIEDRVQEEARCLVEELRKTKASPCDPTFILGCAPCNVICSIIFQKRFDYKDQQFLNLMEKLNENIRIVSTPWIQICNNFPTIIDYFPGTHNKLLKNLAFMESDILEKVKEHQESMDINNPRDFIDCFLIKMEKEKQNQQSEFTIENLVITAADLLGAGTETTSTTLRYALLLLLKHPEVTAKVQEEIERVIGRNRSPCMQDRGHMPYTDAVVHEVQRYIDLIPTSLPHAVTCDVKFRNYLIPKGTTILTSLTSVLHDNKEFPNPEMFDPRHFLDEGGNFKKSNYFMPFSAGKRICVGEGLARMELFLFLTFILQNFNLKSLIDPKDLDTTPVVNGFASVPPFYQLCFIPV

Turning to `COC(=O)N1N=C(c2ccc(Br)cc2)CC1(O)C(F)(F)F` (stereo not drawn), the EC50 in [1] was 0.745 µM (active); in [2] it was 2.85 µM (active).

`COc1ccc(CNc2ccc(N3CCN(C(C)=O)CC3)cc2)cc1OC`: the IC50 in data set [3] is 12 µM (active).

As for `CCN(Cc1ccncc1)C(=O)c1cc(COc2c(C)cccc2C)on1`, the EC50 in data set [4] is 1.42 µM (active); in [5], > 60 µM (not active).

Take `C[C@H](CCC(=O)O)[C@H]1CC[C@]2(C)[C@@H]3C(=O)C[C@H]4C(C)(C)[C@@H](O)CC[C@]4(C)[C@H]3C(=O)C[C@@]12C`: in data set [6], the AC50 result was “inconclusive”.

On to `C1CCC(CNc2c3c(nc4nnnn24)CCCC3)CC1`, for which the EC50 was 1.87 µM (active) in data set [4] and > 60 µM (not active) in data set [5].

Consider `Nc1ccc(N2CCCC2)c(S(=O)(=O)Nc2cccc(C(F)(F)F)c2)c1`, for which the IC50 in data set [3] is 120 µM (active).

On to `CCOc1ccccc1N(C)C(=O)c1cc2c(=O)n(CC)c3ccccc3c2s1`, for which the results for the EC50 in [4] and in data set [5] were 1.43 µM (active) and > 60 µM (not active), respectively.

`Nc1nc(NCCOCCO)nc(N2CCCCCC2)c1[N+](=O)[O-]`: the EC50 in data set [7] was 5.73 µM (active); in data set [8], 8.6 µM (active).

Consider `COc1cc(/C=N/Nc2nc3ccccc3s2)ccc1O`, for which the IC50 in [3] is 69.6 µM (active).

Take `CCC1CCCCN1CC(=O)c1c(C)[nH]c2ccccc12` (stereo not drawn): the EC50 in data set [9] is 22.6 µM (active).

In the case of `CC1CCC2CCCCC2N1C(=O)c1cc([N+](=O)[O-])cc([N+](=O)[O-])c1` (stereo not drawn), the EC50 is 0.212 µM (active) in data set [4] and > 60 µM (not active) in [5].

As to `Cc1ccccc1C1c2[nH]c3ccccc3c2C[C@H]2C(=O)N(C3CCN(Cc4ccccc4)CC3)CC(=O)N12` (stereo partly drawn), the EC50 in data set [4] was 1.98 µM (active); in data set [5], 13.3 µM (active).

In the case of `O=C1[C@H]2C(c3ccccc3)=NN(c3ccccc3)[C@H]2C(=O)N1c1ccccc1`, the results for the EC50 in data set [7] and in [8] were 0.614 µM (active) and 3.62 µM (active), respectively.

For the compound `CC1=NN(c2ccccc2)C(=O)C1C(=O)c1ccc(Cl)cc1` (stereo not drawn), the AC50 in data set [6] (read-out: AC50) is 39.8 µM (inconclusive).

With `Cc1cc(C)c2c(N)c(C(=O)c3ccccc3)sc2n1`, the EC50 was 0.225 µM (active) in data set [4] and > 60 µM (not active) in data set [5].

With `Cc1ccc(C(=O)Nc2c(C#N)c(C)c(C)n2Cc2ccccc2)cc1`, the AC50 in data set [6] (read-out: AC50) is 0.447 µM (inconclusive).

For the compound `COc1ccc(CN2CCN(Cc3ccc(Br)cc3)CC2)c(OC)c1OC`, the IC50 in data set [3] is 70.2 µM (active).

`C[C@@]12CC[C@H](O)C[C@@H]1CC[C@@H]1[C@@H]2CC[C@@]2(C)[C@@H](C3=CC(=O)OC3)[C@H](O)C[C@]12O`: the AC50 result in data set [6] is reported as “inconclusive”.

On to `COC(=O)c1c(-c2ccc3ccccc3c2)csc1NC(=O)Cc1ccc(OC)c(OC)c1`, for which, in data set [10], the AC50 was 11.2 µM (inconclusive).

Consider `CN1CCN(c2ncc3nc(-c4cccs4)c(=O)n(CCc4ccccc4)c3n2)CC1`, for which the concentration at half-maximal activity (AC50) in [10] is 2.51 µM (inconclusive).

Consider `Cc1ccc(Cc2cnc(N3C(=N)SC(c4ccccc4)C3=O)s2)cc1` (stereo not drawn), for which the EC50 was 0.181 µM (active) in data set [7] and 5.16 µM (active) in data set [8].

With `O=C(Nc1cccc(F)c1)N1CC=C(c2ccc(Cl)cc2)CC1`, the values for the EC50 in data set [4] and in data set [5] were 1.48 µM (active) and > 60 µM (not active), respectively.

With `CCOC(=O)Nc1ccc(OC(=O)Oc2ccc(NC(=O)OCC)cc2)cc1`, the IC50 in [3] was 31.8 µM (active).

In the case of `CC(=O)Nc1sc2c(c1C(N)=O)CCCC2`, in [6] (read-out: AC50), the AC50 was 35.5 µM (inconclusive).

For `CCn1cc(CN2CCCC(C(=O)c3cccc(OC)c3)C2)c(C)n1` (stereo not drawn), the EC50 in data set [4] was 0.426 µM (active); in [5] it was > 60 µM (inconclusive).

As for `COc1ccc(CN2CCC(N3CC(C)OC(C)C3)CC2)c(OC)c1OC` (stereo not drawn), the IC50 in data set [3] is 66 µM (active).

Turning to `Cc1ccc(S(=O)(=O)C(C#N)c2nc3ccccc3nc2N2CCCC2)cc1` (stereo not drawn), the EC50 in data set [9] is > 53 µM (inactive).

Take `O=C(O)C1C2C=CC3(CN(Cc4ccccn4)C(=O)C13)O2` (stereo not drawn): the half-maximal activity concentration (AC50) entry in data set [6] is on record as “inconclusive”.

On to `CCOc1ccccc1/C=N\Nc1cnn(Cc2ccccc2)c(=O)c1Cl`, for which the EC50 in [4] was 3.38 µM (active); in [5] it was > 60 µM (inconclusive).

As to `CCC(CC)C(=O)NC1CCSC1=O` (stereo not drawn), the AC50 in [10] is 39.8 µM (inconclusive); in data set [6], “inconclusive”.

In the case of `CN(C)C(=O)c1ccc(-c2cc(Nc3ccccc3)ncn2)cc1`, in data set [10], the AC50 was 12.6 µM (inconclusive).

As for `O=C(NC1CCN(Cc2ccccc2)CC1)C1CCN(S(=O)(=O)c2ccccc2)CC1`, the EC50 in [4] was 0.424 µM (active); in [5] it was > 60 µM (not active).

On to `O=C(NCCCN1CCOCC1)c1ccc(Sc2ccc(F)cc2)c([N+](=O)[O-])c1`, for which the EC50 in data set [4] was 1.01 µM (active); in [5], > 60 µM (inconclusive).

In the case of `O=C(Nc1ccccc1)N1CC[C@@]2(CCCN(C(=O)c3ccco3)C2)C1`, in data set [10], the concentration at half-maximal activity (AC50) was 10 µM (inconclusive).

Regarding `Cc1[nH]c2ccccc2c1SCc1nnc(SCc2ccc(Cl)cc2)n1C`, the EC50 in [4] was 3.54 µM (active); in data set [5], 12.3 µM (active).

Regarding `CCC(=O)Nc1ccc2nc(C3CC3)n(Cc3ccc(C(C)(C)C)cc3)c(=O)c2c1`, the EC50 was 0.325 µM (active) in data set [4] and > 60 µM (not active) in data set [5].

In the case of `COc1cc(CN2CCCC(CO)(Cc3cccc(Cl)c3)C2)cc2c1OCO2` (stereo not drawn), the EC50 in data set [4] is 0.419 µM (active); in data set [5] it was > 60 µM (not active).

Consider `CCCCn1cnc2c(SC)ncnc21`, for which the half-maximal activity concentration (AC50) in [10] was 3.16 µM (inconclusive).

`CCC(=O)Nc1cccc(-n2nnnc2SCC(=O)N2CCCCC2)c1`: the EC50 in data set [9] is 11.7 µM (active).

Turning to `C[C@@H]1CCc2cc(F)cc3c(=O)c(C(=O)O)cn1c23`, in data set [10], the AC50 is 12.6 µM (inconclusive).

For `Cc1c(NC(=O)c2ccc(-c3ccc([N+](=O)[O-])cc3Cl)o2)c(=O)n(-c2ccccc2)n1C`, the EC50 in data set [4] is 0.839 µM (active); in data set [5], > 60 µM (inconclusive).

For the compound `COc1cccc(/C=N/N2CCN(c3ccncc3S(=O)(=O)N3CCCCC3)CC2)c1`, the results for the EC50 in data set [4] and in data set [5] were 1.71 µM (active) and > 60 µM (not active), respectively.
